Where two headings read alike, the source gives them in different places.
Experiments:
[1] = Singlet oxygen quantum yield, method of Nonell and Braslavsky; format: physicochemical; settings: for Increase in ΦΔ: addition of 1 mM TOAB to the free Pc
Method: Singlet oxygen quantum yields, ΦΔ, for both the free and bound Pc were determined (Table 1) using the method of Nonell and Braslavsky.^24 The Pc coated nanoparticles were referenced to perinapthenone in ethanol (ΦΔ=0.97)^25, whilst free Pc was referenced to perinapthenone and octa-decyl zinc phthalocyanine^17 in toluene (ΦΔ=1.0 and 0.7 respectively). After deoxygenation of the Pc samples no singlet oxygen could be detected. […] The value of ΦΔ of 0.45 for the free Pc in toluene is consistent with previous measurements of similar metallated Pcs.^26

[2] = Fluorescence lifetime by time-correlated single photon counting; format: physicochemical
Text: Fluorescence lifetime (τ) measurements were obtained by using the method of time-correlated single photon counting. For both the free and bound phthalocyanine optimum fits (X2) were obtained for the double exponential and τ1 and τ2 values are shown in table 1.

[3] = Solubility in polar solvents; format: physicochemical; settings: polar solvents (e.g. ethanol, methanol, DMSO)
Text: Transmission electron micrographs of the Pc-gold nanoparticles are consistent with those reported by several groups for other thiol-stabilized MPCs in that they show small, 2-4 nm, non-aggregated particles—FIG. 2. […] A similar change in solubility was recently reported by Imahori et al.^23 for a porphyrin self-assembled on gold nanoparticles used as an artificial photosynthetic material.

[4] = cited from earlier work
[5] = double exponential fit, free Pc in toluene, Pc-nanoparticles in ethanol
[6] = in toluene with addition of 1 mM TOAB

τ1 (yield) [2, 5] [%] | τ1 fluorescence lifetime [2, 5] [ns] | τ2 (yield) [2, 5] [%] | τ2 fluorescence lifetime [2, 5] [ns] | τ1 (yield) [2, 6] [%] | τ1 fluorescence lifetime [2, 6] [ns] | τ2 (yield) [2, 6] [%] | τ2 fluorescence lifetime [2, 6] [ns] | Solubility in polar solvents [3] | Molecule | Increase in ΦΔ [1] | Increase in ΦΔ ([1]; listed as free phthaloyanine) | φΔ singlet oxygen quantum yield ([1]; free Pc in toluene, Pc-nanoparticles in ethanol, referenced to perinapthenone (and octa-decyl zinc phthalocyanine for free Pc)) | ΦΔ singlet oxygen quantum yield of reference ([4]; in ethanol) | ΦΔ singlet oxygen quantum yield of reference ([4]; in toluene)
91 | 2.1 | 9 | 1.11 | 76 | 0.7 | 24 | 1.7 | insoluble | CCCCCCc1ccc(CCCCCC)c2c1-c1nc3nc(nc4[nH]c(nc5[nH]c(nc-2n1)c1c(CCCCCC)ccc(CCCCCC)c51)c1c(CCCCCC)ccc(CCCCCC)c41)-c1c(C)ccc(CCCCCCCCCCCS)c1-3 [Free Pc, 1,4,8, 11, 15, 18-hexahexyl-22-(11-mercaptoundecyl)-25-methyl phthalocyanine] | ca. 10% | about 10% | 0.45 | – | –
– | – | – | – | – | – | – | – | – | O=C1C=Cc2cccc3cccc1c23 [perinapthenone] | – | – | – | 0.97 | 1.0
– | – | – | – | – | – | – | – | – | octa-decyl zinc phthalocyanine | – | – | – | – | 0.7
